This is an account of results in US20210222144A1, “SELECTIVE HYDRATION OF OLEIC ACID DERIVATIVES” (priority 2018, published 2021).

Where only a bound is given, the exact number is not on record here.

One test concerns the target T1, OhyA Q265A/T436A/N438A (Elizabethkingia meningoseptica, UniProt C7DLJ6, N438A/Q265A/T436A).
T1 construct: His tag with TEV site by the vector name (HISTEV); expressed in transfected cells; host or cells: E. coli BL21 Star (DE3)
Nature of the test: Whole cell E. coli biotransformation, hydration of oleic acid and derivatives by mutant OhyA Q265A/T436A/N438A. It counts as cell-based. The settings on record: for e.e. of hydrated product: abs. conf. at C-10: R, table does not separate WT and mutant; for Apparent hydration activity normalized for biomass, OhyA Q265A/T436A/N438A: whole cell E. coli biocatalyst, 2 mM substrate, 30° C., pH 6.0; for relative hydration activity compared to wt-OhyA: OhyA Q265A/T436A/N438A versus wt-OhyA. The method, then: (§1) Free fatty acids were identified and analyzed by gas chromatography-mass spectrometry (GC-MS) and comparison of derived mass fragmentation spectra to authentic standards. A HP-5 column (crosslinked 5% Ph-Me Siloxane; 30 m length, 0.25 mm in diameter and 0.25 μm film thickness) on a Hewlett-Packard 6890 Series II GC equipped with a mass selective detector was used. Sample aliquots of 1 μL were injected in split mode (split ratio 30:1) at 240° C. injector temperature and 290° C. detector temperature with N2 as carrier at a flow rate set to 36 cm s^−1 in constant flow mode. The temperature program was as follows: 100° C. for 1 min, 15° C. min^−1 to 300° C., hold for 5 min. The total run time was 19.33 min. The mass selective detector was operated in a mass range of 50-400 amu at an electron multiplier voltage of 1765 V. Results were evaluated with the GC-MS Data Analysis software (Agilent Technologies, Austria).
(§2) OhyA was recombinantly expressed in E. coli. First, a pre-culture was inoculated with E. coli BL21 Star (DE3) cells harboring pMS470-HISTEV-OhyA wild type enzyme or variants, and was grown in LB supplemented with 100 μg mL^−1 ampicillin at 28° C. and 130 rpm overnight. Main cultures were inoculated to an OD600 of 0.1 in auto induction medium (AIM)—Terrific Broth Base including Trace elements (Formedium, UK) containing 100 μg mL^−1 ampicillin. Recombinant protein was expressed at 28° C. and 130 rpm for 22 h. Cells were harvested by centrifugation for 10 min at 4,400×g and 22° C. and were instantly used for whole cell biotransformation or were frozen at −20° C. until protein purification.
(§3) For bioconversion assays of oleic acid (OA) and OA derivatives, i.e. substrates (1) to (10), 50 OD600 units of thus prepared cells, which are corresponding to a cell dry weight of 50 mg, were resuspended in 50 mM HEPES, pH 6.0, supplemented with 100 mM glucose and 0.2 mM FAD in Pyrex® glass culture tubes (Corning, N.Y.). Biotransformation at 1 mL scale were started by adding substrate to a final concentration of 2 mM from an ethanolic stock solution (100 mM). n-pentadecanoic acid (1 mM) was used as internal standard. The reactions were conducted in the presence of 2% (v/v) of ethanol as co-solvent at 30° C. and shaking at 150 rpm at a defined angle of the Pyrex® tubes (55°). Biotransformation were performed for 22 h or 96 h. The assays were quenched by acidification to pH 2.0 with 0.12 M HCl, and fatty acid derivatives were extracted twice with 2 mL of ethyl acetate while agitating on a Vibrax VXR basic shaker (IKA, Germany) for 30 min. The suspension was centrifuged for 5 min at 2,900×g and 22° C. to improve the separation of the phases. Combined organic phases were concentrated under a N2 stream. Fatty acid derivatives were silylated with 10 μL of pyridine and 50 μL of N,O-bis(trimethylsilyl)trifluoroacetamide (BSTFA). After incubation for 30 min at 500 rpm, extracts were diluted with 200 μL of ethyl acetate and analyzed by GC-MS. […]

Test [1] addresses oleate hydratase from Elizabethkingia meningoseptica (OhyA, EC 4.2.1.53) (Elizabethkingia meningoseptica, UniProt C7DLJ6). The settings on record: wild-type OhyA, without co-factor recycling; cited from earlier work.
The target in another test is T2, OhyA wild type (WT) (Elizabethkingia meningoseptica, UniProt C7DLJ6).
T2 construct: His tag with TEV site by the vector name (HISTEV); expressed in transfected cells; host or cells: E. coli BL21 Star (DE3)
Nature of the test: Whole cell E. coli biotransformation, hydration of oleic acid and derivatives by OhyA wild type. It counts as cell-based. The settings on record: whole cell E. coli biocatalyst, 2 mM substrate, 30° C., pH 6.0. The method, then: as §1, §2, §3

Another test addresses T3, OhyA Q265A/N438A (Elizabethkingia meningoseptica, UniProt C7DLJ6, N438A/Q265A).
T3 construct: His tag with TEV site by the vector name (HISTEV); expressed in transfected cells; host or cells: E. coli BL21 Star (DE3)
Kind of test: Bioconversion with modified OhyA variant Q265A/N438A. It counts as cell-based. To be noted: OhyA Q265A/N438A in bioconversions. As to the method: as §2
For bioconversion assays of oleic acid (OA) and OA derivatives, i.e. substrates (1) to (10), 50 OD600 units of thus prepared cells, which are corresponding to a cell dry weight of 50 mg, were resuspended in 50 mM HEPES, pH 6.0, supplemented with 100 mM glucose and 0.2 mM FAD in Pyrex® glass culture tubes (Corning, N.Y.). Biotransformation at 1 mL scale were started by adding substrate to a final concentration of 2 mM from an ethanolic stock solution (100 mM). n-pentadecanoic acid (1 mM) was used as internal standard. […] After incubation for 30 min at 500 rpm, extracts were diluted with 200 μL of ethyl acetate and analyzed by GC-MS.

Test [2] deals with T4, mutant OhyA Q265A/T436A/N438A (Elizabethkingia meningoseptica, UniProt C7DLJ6, N438A/Q265A/T436A).
T4 construct: His tag with TEV site by the vector name (HISTEV); made in house; host or cells: E. coli BL21 Star (DE3)
Nature of the test: Anaerobic in vitro hydration with purified OhyA after reduction of the FAD cofactor. It counts as biochemical. To be noted: purified enzyme, reduced FAD, overnight incubation, wt-OhyA compared with mutant. The method, then: For purification of the recombinant OhyA, cell pellets were resuspended in 50 mM HEPES, pH 7.4, containing 10 mM imidazole. Cells were lysed by ultrasonication for 4 min with a Sonifier® 250 (Branson, Danbury, Conn.) setting the duty cycle to 80% and the output control to level 8. Cell free extract (CFE) was separated from the total cell lysate (TCL) by centrifugation for 35 min at 48,300×g and 4° C., and was filtered through 0.22 μm filters (Millipore, Bedford, Mass.) prior to loading it onto a pre-equilibrated self-packed Ni-NTA affinity chromatography column (GE Healthcare, United Kingdom). Prior to any further analyses, purified OhyA was incubated with a 10-fold molar excess of FAD over night at 4° C. Unbound FAD was removed from the protein aliquot by buffer exchange via PD-10 desalting columns (GE Healthcare, United Kingdom) according to the recommended protocol.
For reduction of the enzyme-bound flavin cofactor, wt-OhyA and mutant Q265A/T436A/N438A were diluted in 50 mM HEPES, pH 7.4, containing 50 mM NaCl, 5 mM EDTA, 1 μM 5-deazariboflavin and 4 μM methyl viologen to give an absorption of approximately 0.2 AU at 440 nm. The solution was transferred to a cuvette and oxygen was removed by incubation for at least 2 h in a glove box. Afterwards, the cofactor was reduced by anaerobic photoreduction or chemical reduction with dithiothreitol (DTT). […]

T2 sequence (C7DLJ6 whole entry): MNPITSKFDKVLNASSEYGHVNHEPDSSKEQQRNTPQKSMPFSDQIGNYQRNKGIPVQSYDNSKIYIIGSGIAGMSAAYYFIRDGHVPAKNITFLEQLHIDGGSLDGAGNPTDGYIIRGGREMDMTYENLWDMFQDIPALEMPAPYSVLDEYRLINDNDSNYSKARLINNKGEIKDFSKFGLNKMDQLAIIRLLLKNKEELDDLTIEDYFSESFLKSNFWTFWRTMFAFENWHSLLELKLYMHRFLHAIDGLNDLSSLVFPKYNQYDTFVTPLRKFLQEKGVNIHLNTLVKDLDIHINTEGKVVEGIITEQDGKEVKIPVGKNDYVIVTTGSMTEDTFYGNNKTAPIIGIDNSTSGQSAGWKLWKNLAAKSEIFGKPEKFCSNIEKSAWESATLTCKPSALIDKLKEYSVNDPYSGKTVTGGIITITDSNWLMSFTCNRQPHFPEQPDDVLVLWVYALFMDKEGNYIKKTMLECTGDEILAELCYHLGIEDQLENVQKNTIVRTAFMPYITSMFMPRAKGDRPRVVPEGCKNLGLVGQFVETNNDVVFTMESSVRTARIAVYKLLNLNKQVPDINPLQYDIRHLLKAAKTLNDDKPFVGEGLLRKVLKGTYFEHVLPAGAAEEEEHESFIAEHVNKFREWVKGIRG
T1 sequence (C7DLJ6 whole entry Q265A/T436A/N438A): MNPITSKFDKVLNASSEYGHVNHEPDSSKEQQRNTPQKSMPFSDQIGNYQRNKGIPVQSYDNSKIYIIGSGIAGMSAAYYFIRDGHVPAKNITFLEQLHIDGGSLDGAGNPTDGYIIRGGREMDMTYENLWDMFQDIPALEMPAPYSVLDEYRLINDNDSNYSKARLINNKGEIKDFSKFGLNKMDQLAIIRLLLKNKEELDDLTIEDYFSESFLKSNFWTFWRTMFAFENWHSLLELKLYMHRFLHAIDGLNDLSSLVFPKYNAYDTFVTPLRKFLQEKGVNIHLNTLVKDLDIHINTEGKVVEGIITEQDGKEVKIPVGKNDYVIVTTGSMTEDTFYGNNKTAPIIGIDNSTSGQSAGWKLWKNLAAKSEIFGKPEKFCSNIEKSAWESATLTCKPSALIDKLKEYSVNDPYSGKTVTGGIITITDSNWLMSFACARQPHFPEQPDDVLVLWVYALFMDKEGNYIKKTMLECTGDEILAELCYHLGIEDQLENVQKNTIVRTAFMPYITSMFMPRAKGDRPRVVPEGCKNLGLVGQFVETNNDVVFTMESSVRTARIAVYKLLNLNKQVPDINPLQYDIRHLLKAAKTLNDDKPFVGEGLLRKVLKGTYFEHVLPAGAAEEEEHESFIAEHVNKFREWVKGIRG
T3 sequence (C7DLJ6 whole entry Q265A/N438A): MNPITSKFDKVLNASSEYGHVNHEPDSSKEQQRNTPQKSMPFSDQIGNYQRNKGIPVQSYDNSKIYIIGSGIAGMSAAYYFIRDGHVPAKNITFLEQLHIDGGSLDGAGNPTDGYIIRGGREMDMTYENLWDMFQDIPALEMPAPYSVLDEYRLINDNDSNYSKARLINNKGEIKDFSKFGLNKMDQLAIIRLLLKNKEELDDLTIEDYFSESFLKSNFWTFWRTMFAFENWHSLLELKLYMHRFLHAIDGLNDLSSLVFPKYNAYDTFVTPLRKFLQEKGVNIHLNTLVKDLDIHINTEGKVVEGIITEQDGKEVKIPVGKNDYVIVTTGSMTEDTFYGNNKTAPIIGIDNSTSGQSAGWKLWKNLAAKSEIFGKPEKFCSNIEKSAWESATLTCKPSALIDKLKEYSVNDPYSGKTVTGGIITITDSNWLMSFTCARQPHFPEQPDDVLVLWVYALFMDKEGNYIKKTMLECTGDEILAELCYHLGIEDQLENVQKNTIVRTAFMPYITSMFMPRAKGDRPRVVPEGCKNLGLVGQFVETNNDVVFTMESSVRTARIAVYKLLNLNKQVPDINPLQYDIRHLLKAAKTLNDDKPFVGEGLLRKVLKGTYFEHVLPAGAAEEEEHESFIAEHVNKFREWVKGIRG
Sequence of oleate hydratase from Elizabethkingia meningoseptica (OhyA, EC 4.2.1.53) (C7DLJ6 whole entry): as the sequence (C7DLJ6 whole entry) above
T4 sequence (C7DLJ6 whole entry Q265A/T436A/N438A): as the sequence (C7DLJ6 whole entry Q265A/T436A/N438A) above

For `CCCCCCCC/C=C\CCCCCCCC(=O)O` [Entry 1, oleic acid], on OhyA Q265A/T436A/N438A, the “e.e. of hydrated product” value is on record as greater than 99% and the “Apparent hydration activity normalized for biomass, OhyA Q265A/T436A/N438A” value came to 28.4 ± 0.3 mU g^−1 CDW. The “enantiomeric excess (ee) of (R)-10-hydroxy stearic acid” value in test [1] is recorded as “at least 98%”. The “Apparent hydration activity normalized for biomass, OhyA WT” value on OhyA wild type (WT) is 26.3 ± 0.2 mU g^−1 CDW.
Take `CCCCCCCC/C=C\CCCCCCCCN` [Entry 2, oleyl amine]: the “e.e. of hydrated product” value at OhyA Q265A/T436A/N438A is greater than 99%.
Regarding `CCCCCCCC/C=C\CCCCCCCC(N)=O` [Entry 3, oleamide], on OhyA Q265A/T436A/N438A, the “e.e. of hydrated product” value was greater than 99% and the “Apparent hydration activity normalized for biomass, OhyA Q265A/T436A/N438A” value was 10.7 ± 0.3 mU g^−1 CDW. In addition, at OhyA wild type (WT), the “Apparent hydration activity normalized for biomass, OhyA WT” value is 11.1 ± 0.7 mU g^−1 CDW.
In the case of `CCCCCCCC/C=C\CCCCCCCC(=O)NO` [Entry 4, N-hydroxy oleamide], at OhyA Q265A/T436A/N438A, the “relative hydration activity compared to wt-OhyA” value is on record as “at least 5 fold”; the “e.e. of hydrated product” value was greater than 99%; the “Apparent hydration activity normalized for biomass, OhyA Q265A/T436A/N438A” value was found to be 13.4 ± 2.5 mU g^−1 CDW. In addition, the “Apparent hydration activity normalized for biomass, OhyA WT” value on OhyA wild type (WT) turned out to be 3.4 ± 0.7 mU g^−1 CDW. On OhyA Q265A/N438A, the “enhanced relative hydration activity” value is recorded as “at least 5 fold”.
Consider `CCCCCCCC/C=C\CCCCCCCCO` [Entry 5, oleyl alcohol], for which, at OhyA Q265A/T436A/N438A, the “relative hydration activity compared to wt-OhyA” value is “at least 2 fold”; the “e.e. of hydrated product” value is recorded as greater than 99%; the “Apparent hydration activity normalized for biomass, OhyA Q265A/T436A/N438A” value was found to be 15.5 ± 1.0 mU g^−1 CDW. Moreover, the “Apparent hydration activity normalized for biomass, OhyA WT” value on OhyA wild type (WT) is recorded as 8.4 ± 2.1 mU g^−1 CDW.
With `CCCCCCCC/C=C\CCCCCCCC(=O)OC` [Entry 6, methyl oleate], at OhyA Q265A/T436A/N438A, the “relative hydration activity compared to wt-OhyA” value came out at 6 fold; the “e.e. of hydrated product” value was greater than 99%; the “Apparent hydration activity normalized for biomass, OhyA Q265A/T436A/N438A” value is given as 2.5 ± 0.2 mU g^−1 CDW. For the same compound, the “peak at the expected retention time of the hydrated product (GC-MS)” value in test [2] is “only in the case of the variant”. Also, the “Apparent hydration activity normalized for biomass, OhyA WT” value at OhyA wild type (WT) was 0.3 ± 0.1 mU g^−1 CDW.
Take `CCCCCCCC/C=C\CCCCCCCC(=O)OCC` [Entry 7, ethyl oleate]: on OhyA Q265A/T436A/N438A, the “relative hydration activity compared to wt-OhyA” value turned out to be 6 fold; the “e.e. of hydrated product” value is on record as greater than 99%; the “Apparent hydration activity normalized for biomass, OhyA Q265A/T436A/N438A” value is on record as 1.7 ± 0.1 mU g^−1 CDW. For the same compound, the “Apparent hydration activity normalized for biomass, OhyA WT” value at OhyA wild type (WT) is on record as 0.2 ± 0.1 mU g^−1 CDW.
In the case of `CCCCCCCC/C=C\CCCCCCCC(=O)OC(C)C` [Entry 8, i-propyl oleate], on OhyA Q265A/T436A/N438A, the “e.e. of hydrated product” value is listed as greater than 99% and the “Apparent hydration activity normalized for biomass, OhyA Q265A/T436A/N438A” value was found to be 1.5 ± 0.1 mU g^−1 CDW. For the same compound, the “Apparent hydration activity normalized for biomass, OhyA WT” value at OhyA wild type (WT) is 0.1 ± 0.1 mU g^−1 CDW.
Take `CCCCCCCC/C=C\CCCCCCCC(=O)OCCC` [Entry 9, n-propyl oleate]: at OhyA Q265A/T436A/N438A, the “relative hydration activity compared to wt-OhyA” value came out at 20 fold; the “e.e. of hydrated product” value is greater than 99%; the “Apparent hydration activity normalized for biomass, OhyA Q265A/T436A/N438A” value is 0.9 ± 0.1 mU g^−1 CDW. Besides, the “Apparent hydration activity normalized for biomass, OhyA WT” value at OhyA wild type (WT) was 0.2 ± 0.1 mU g^−1 CDW.
Consider `CCCCCCCC/C=C\CCCCCCCC(=O)OCCCC` [Entry 10, n-butyl oleate], for which, on OhyA Q265A/T436A/N438A, the “e.e. of hydrated product” value was greater than 99% and the “Apparent hydration activity normalized for biomass, OhyA Q265A/T436A/N438A” value is recorded as 0.8 ± 0.1 mU g^−1 CDW. For the same compound, the “Apparent hydration activity normalized for biomass, OhyA WT” value at OhyA wild type (WT) stood at 0.1 ± 0.1 mU g^−1 CDW.
